From US10329243B2, “Biphenyl derivative and uses thereof” (XI'AN LIBANG PHARMACEUTICAL CO., LTD, priority 2015, dated 2019)
Read-outs that look alike come from different tables or passages of the source.

Assays:
brain cell apoptosis = assay: Apoptosis determination (TUNEL method), permanent cerebral ischemia model; assay type: in vivo, SD rats
Description: (§1) Rats were intraperitoneally injected with 10% chloral hydrate 350 mg/kg after anesthesia and opened up at the center of the neck in accordance with the Zea Longa modified method. The right common carotid artery was separated, and the right external carotid artery branches was ligated. A small opening was made at the distal end of the external carotid artery, and a previously prepared thread was inserted through the common carotid artery and the external carotid artery bifurcation into the internal carotid artery, till the anterior end of the middle cerebral artery, with an immersed depth of 18 to 19 mm. The thread was then secured, and the wound was sutured layer by layer. After the operation, the rats were placed in a clean incubator to wake up. […] The sham operation group, the permanent cerebral ischemia model group, and the Example groups were prepared strictly according to the requirements of the cerebral ischemic reperfusion model, while in the sham operation group the thread was put only into the external carotid artery. The animals were allowed to eat and drink freely after waking up. The sham operation group, the permanent cerebral ischemia model group, and the Example groups were administered intravenously the aqueous solution of the biphenyl derivatives in PEG400 at 40 mg/kg (40 mg/kg means that 40 mg of the test compound per kg of the body weight of rats) 30 min before insertion of thread and 12 h after embolism, respectively. The sham operation group and the permanent cerebral ischemia model group were injected with the same amount of blank PEG400 aqueous solution at the same time point.
24 hours after the embolism, 8 rats in each group were sacrificed by decapitation, the brain was removed, rinsed with PBS (pH 7.4) at −20°i for 20 min, evenly sliced (with a thickness of 2 mm), stained in a 2% TTC solution at 37°% in the dark for 30 min, fixed in 10% formalin for 24 h, and photographs were taken to analyze the infarct volume. A mixture of femoral arterial and venous blood was drawn from another 8 rats in each group under anesthesia, placed in a low temperature centrifuge at 4° C., centrifuged at 3500 r/min for 20 min, and the supernatant was stored in a refrigerator at −20° C. ready for SOD and MDA detection. After the blood was drawn, a perfusion needle was insert through the apex to the ascending aorta, and saline at 4° C. was rapid infused until the effluent became clear, followed by 4% paraformaldehyde phosphate buffer perfusion for fixation; the brain was removed by craniotomy, and brain tissues 2 mm in front of and behind the optic chiasma were taken and fixed, dehydrated, rendered transparent, impregnated in wax, and embedded. Brain continuous coronary tissue pathological sections were consecutively cut for later use. The remaining 8 rats in each group were sacrificed, brains were removed, the ischemic brain hemispheres were immediately taken on an ice tray, and 10% brain tissue homogenate was prepared for the detection of IL-1β and TNF-α.
The TUNEL method was used for determination. Brain tissue paraffin sections were dewaxed into water, washed with 3% H2O2 to eliminate endogenous peroxidase activity, and rinsed with distilled water for 2 min, repeated 3 times. A labelling solution was added for labelling at 37°t for 2 h, and a blocking solution was added for blocking at room temperature for 30 min. A biotinylated anti-digoxin antibody was added for a reaction at 37°a for 30 min, and SABC was added for a reaction at 37°a for 30 min. The sections were continuously rinsed with TBS for 5 min repeatedly for 4 times, stained with DAB, sufficiently washed, mild counterstained with Hematoxylin, gradient dehydrated with alcohol, made transparent with toluene, sealed and fixed. Five non-overlapping fields in semi-dark band were randomly selected from each section and inputted into the image analysis system. The number of apoptotic cells was counted, and the average was designated the number of apoptotic cells.

[1] = system: rats with permanent cerebral ischemia injury; assay type: in vivo, SD rats
Description: 336 healthy male SD rats weighing 250-300 g, provided by the Experimental Animal Center of the Fourth Military Medical University, were randomly divided into […]: the sham operation group, the permanent cerebral ischemia model group, and Examples 1-12 groups. The biphenyl derivatives used in each of the Examples 1-12 groups were the same as those in Example 13.
as §1, with “The sham operation group, the permanent cerebral ischemia model group, and the Example groups were administered intravenously the aqueous solution of the biphenyl derivatives in PEG400 at 40 mg/kg (40 mg/kg means that 40 mg of the test compound per kg of the body weight of rats) 30 min before insertion of thread and 12 h after embolism, respectively.” left out
The neurological impairment was scored in each group 24 h after the embolism. The scoring was in accordance with the Longa 5-grade method: grade 0: no nerve injury symptom; grade 1: inability of stretching the contralateral forepaw; grade 2: circling to the opposite side; grade 3: tumbling to the opposite side; grade 4: no autonomous activity with loss of consciousness.

[2] = permanent cerebral ischemia model rats, 40 mg/kg intravenously 30 min before insertion of thread and 12 h after embolism, scored 24 h after the embolism, Longa grade 0-4
[3] = permanent cerebral ischemia model rats, 40 mg/kg intravenously, brain sections 24 h after the embolism, TUNEL, average of five fields

Compound	Number of apoptotic cells (brain cell apoptosis; rat, in vivo, iv, 40 mg/kg)	Average score of neurological impairment [1, 2]	Number of apoptotic cells (brain cell apoptosis; permanent cerebral ischemia model rats, edaravone 3 mg/kg)	Number of apoptotic cells (brain cell apoptosis; [3])	Average score of neurological impairment ([1]; rat, in vivo, iv, 40 mg/kg)
3,3′,5,5′-tetraisopropylbiphenyl-4,4′-bis(oxymethylene phosphate) [Example 3 group]	29.72 ± 3.43	2.8	–	–	–
CC1=NN(c2ccccc2)C(=O)C1 [Edaravone injection, edaravone, reference compound]	–	–	33.19 ± 3.81	–	–
CC(=O)Oc1c(C(C)C)cc(-c2cc(C(C)C)c(O)c(C(C)C)c2)cc1C(C)C [Example 1 group, 4′-hydroxy-3,3′,5,5′-tetraisopropylbiphenyl-4-acetate]	–	2.4	–	–	–
CC(=O)Oc1c(C(C)C)cc(-c2cc(C(C)C)c(OC(C)=O)c(C(C)C)c2)cc1C(C)C [Example 2 group, 3,3′,5,5′-tetraisopropylbiphenyl-4′-diacetate]	–	2.5	–	23.27 ± 3.78	–
CC(C)c1cc(-c2cc(C(C)C)c(OC(=O)CCC(=O)O)c(C(C)C)c2)cc(C(C)C)c1O [Example 5 group, [4-(4′-hydroxy-3,3′,5,5′-tetraisopropylbiphenyl)oxy]-4-carbonyl butyric acid]	–	2.4	–	23.48 ± 3.62	–
CCCc1cc(-c2cc(CCC)c(O)c(C(C)C)c2)cc(C(C)C)c1O [Example 6 group, 4,4′-dihydroxy-3,3′-diisopropyl-5,5′-dipropylbiphenyl]	–	2.2	–	21.24 ± 5.30	–
CCCc1cc(-c2cc(CCC)c(O)c(CCC)c2)cc(CCC)c1O [Example 7 group, 4,4′-dihydroxy-3,3′,5,5′-tetrapropylbiphenyl]	–	2.3	–	20.32 ± 4.19	–
CC(C)c1cc(-c2cc(C(C)C)c(C(=O)O)c(C(C)C)c2)cc(C(C)C)c1O [Example 8 group, 4′-hydroxy-3,3′,5,5′-tetraisopropylbiphenyl-4-carboxylic acid]	–	2.7	–	27.74 ± 4.20	–
CC(C)c1cc(-c2cc(C(C)C)c(Cl)c(C(C)C)c2)cc(C(C)C)c1O [Example 9 group, 4-chloro-4′-hydroxy-3,3′,5,5′-tetraisopropylbiphenyl]	31.44 ± 5.19	–	–	–	2.8
CC(C)c1cc(-c2cc(C(C)C)c(OC=O)c(C(C)C)c2)cc(C(C)C)c1O [Example 10 group]	–	2.4	–	23.67 ± 5.13	–
CC(C)c1cc(-c2cc(C(C)C)c(OC(=O)C(N)C(C)C)c(C(C)C)c2)cc(C(C)C)c1O (stereo not shown) [Example 11 group, 4′-hydroxy-3,3′,5,5′-tetraisopropylbiphenyl-2-amino-3-methylbutyrate]	–	2.3	–	26.31 ± 3.86	–
CC(=O)OC(C)Oc1c(C(C)C)cc(-c2cc(C(C)C)c(O)c(C(C)C)c2)cc1C(C)C (stereo not shown) [Example 12 group, Ethyl 1-(4′-hydroxy-3,3′,5,5′-tetraisopropylbiphenyl-4-oxo)acetate]	–	2.6	–	32.45 ± 4.21	–
